Reference: ChEMBL document CHEMBL1130928 (Bioorg Med Chem Lett, 1998)

Legend:
[1] = target: Human immunodeficiency virus type 1 reverse transcriptase (Human immunodeficiency virus 1, UniProt Q72547, Y181C); experiment: Compound was tested for inhibitory activity against HIV-1 mutant type reverse transcriptase (Y181C)
[2] = target: T1, Human immunodeficiency virus type 1 reverse transcriptase (Human immunodeficiency virus 1, UniProt Q72547); experiment: Compound was tested for inhibitory activity against HIV-1 mutant type reverse transcriptase ([…])
[3] = target: T1, Human immunodeficiency virus type 1 reverse transcriptase; experiment: Compound was tested for inhibitory activity against HIV-1 wild type reverse transcriptase
[4] = target: Human immunodeficiency virus type 1 reverse transcriptase (Human immunodeficiency virus 1, UniProt Q72547, K103N); experiment: Compound was tested for inhibitory activity against HIV-1 mutant type reverse transcriptase (K103N)
[5] = target: Human immunodeficiency virus type 1 reverse transcriptase (Human immunodeficiency virus 1, UniProt Q72547, P236L); experiment: Compound was tested for inhibitory activity against HIV-1 mutant type reverse transcriptase (P236L)

SMILES: CCN1c2ncccc2C=Cc2cccnc21
- IC50 [1]: 2500 nM
- IC50 [2]: 230 nM
- IC50 [3]: 40 nM
- IC50 [4]: 1500 nM
- IC50 [5]: 10 nM

SMILES: C1=Cc2cccnc2N(C2CC2)c2ncccc21
- IC50 [1]: 960 nM
- IC50 [2]: 150 nM
- IC50 [3]: 20 nM
- IC50 [4]: 630 nM
- IC50 [5]: 10 nM
